We go through 13 molecules from patent publication US5760036A, “Aminediol protease inhibitors” (E. R. Squibb & Sons, Inc., priority 1995, dated 1998).

The subject of assay [1] is RF strain of HIV (CEM-SS cells). In words: Cell Culture Anti-HIV Activity (cell viability, formazan). In kind it is cell-based. The note with it: Human immunodeficiency virus 1, CEM-SS, 144 h, CEM-SS cells, RF strain of HIV, multiplicity of infection 0.04, 6 days at 37° C., 450 nm; read-out: HIV (CEM Cells) IC50. The procedure:
The antiviral activity of aminediol inhibitors of the present invention was evaluated by a microculture method which determines the increase in cell viability of an infected culture when a drug is added. The assay depends on the metabolic reduction of tetrazolium reagent by viable cells to yield a soluble colored formazan product.
The assay was performed as follows: suspensions of CEM-SS cells (5000/well) were infected with the RF strain of HIV at a multiplicity of infection at 0.04 in a 96-well plate. The compounds of the present invention listed in the following Table 1, serially diluted in half-log fashion, were added to the infected and uninfected control cells. Untreated (infected and uninfected) cells were included as controls. Following incubation for 6 days at 37° C., viable cells in each well were quantitated by the visible light absorbance at 450 nm.
The IC50 was calculated as the concentration of drug that increased the formazan production in virally infected cells to 50% of that produced by uninfected cells in the absence of drug.

A further assay deals with T1, HIV protease (Human immunodeficiency virus type 1 group M subtype B, UniProt P04585).
T1 construct: and purified protease
Put plainly: HIV Protease Assay. In kind it is biochemical. The note with it: pH 5.5, 10 μM inhibitor, 4% DMSO, 450 μM substrate, pH 5.5, 30 minutes at 37° C., RP-HPLC; read-out: HIV Protease % Inhibition at 10 μM. A digest of the protocol: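 Purified protease cleaved 450 μM octapeptide substrate in 50 mM sodium acetate pH 5.5 with 100 μg/ml BSA for 30 minutes at 37° C; product analyzed by reverse-phase HPLC at UV220 after H3PO4 quench. Inhibitors tested at final 10 μM with 4% DMSO.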

Molecules are shown by their SMILES. Where a name gives a salt, the structure may show the parent alone.

On to `CC(C)[C@H](NC(=O)[C@@H](N)CO)C(=O)N[C@@H](Cc1ccccc1)[C@H](O)CNC[C@@H](O)[C@H](Cc1ccccc1)NC(=O)OC(C)(C)C` (relative stereo) [Compound 212, [1R*,2S*(2S*,3R*)]-N-[N-[3-[[3-[[(1,1-Dimethylethoxy)carbonyl]amino]-2-hydroxy-4-phenylbutyl]amino]-2-hydroxy-1-(phenylmethyl)propyl]-L-valyl]-L-serinamide, fumarate (2:3) salt], for which the IC50 (usually the midpoint of a concentration-inhibition curve) in assay [1] came to 3800 nM. Also, at HIV protease, the inhibition (in general, the percentage by which the read-out fell short of the control) at 10 µM was 99%.
For `CC(C)[C@H](NC(=O)OCCO)C(=O)N[C@@H](Cc1ccccc1)[C@H](O)CNC[C@@H](O)[C@H](Cc1ccccc1)NC(=O)OC(C)(C)C` (relative stereo) [Compound 218, [1R*,2S*(2S*,3R*)]-N-[3-[[3-[[(1,1-Dimethylethoxy)carbonyl]amino]-2-hydroxy-4-phenylbutyl]amino]-2-hydroxy-1-(phenylmethyl)propyl]-N^2-[(2-hydroxyethoxy)carbonyl]-L-valinamide], the IC50 in assay [1] was 1100 nM. Besides, the inhibition at 10 µM on HIV protease worked out at 96%.
The like results for `CC(C)[C@H](NC(=O)OC[C@H](O)CO)C(=O)N[C@@H](Cc1ccccc1)[C@H](O)CNC[C@@H](O)[C@H](Cc1ccccc1)NC(=O)OC(C)(C)C` (relative stereo) [Compound 219, [[1R*,2S*(2S*,3R*)],N^2-(S*)]-N^2-[(2,3-Dihydroxypropoxy)carbonyl]-N-[3-[[3-[[(1,1-dimethylethoxy)carbonyl]-amino]-2-hydroxy-4-phenylbutyl]amino]-2-hydroxy-1-(phenylmethyl)propyl]-L-valinamide] were, in that order, 35000 nM and 86%.
Take `C[C@H](NC(=O)OCc1nc2ccccc2[nH]1)C(=O)N[C@@H](Cc1ccccc1)[C@H](O)CNC[C@@H](O)[C@H](Cc1ccccc1)NC(=O)OC(C)(C)C` (relative stereo) [Compound 220, [1R*,2S*(2S*,3R*)]-N^2-[[(2-Benzimidazolyl)methoxy]carbonyl]-N-[3-[[3-[[(1,1-dimethylethoxy)carbonyl]amino]-2-hydroxy-4-phenylbutyl]amino]-2-hydroxy-1-(phenylmethyl)propyl]-L-alaninamide]: in assay [1], the IC50 is 770 nM. In addition, at HIV protease, the inhibition at 10 µM came to 100%.
Take `CC(C)[C@H](NC(=O)OCc1nc2ccccc2c(=O)[nH]1)C(=O)N[C@@H](Cc1ccccc1)[C@H](O)CNC[C@@H](O)[C@H](Cc1ccccc1)NC(=O)OC(C)(C)C` (relative stereo) [Compound 222, [1R*,2S*(2S*,3R*)]-N^2-[[(3,4-Dyhydro-4-oxo-2-quinazolinyl)methoxy]carbonyl]-N-[3-[[3-[[(1,1-dimethylethoxy)carbonyl]amino]-2-hydroxy-4-phenylbutyl]amino]-2-hydroxy-1-(phenylmethyl)propyl]-L-valinamide]: in assay [1], the IC50 worked out at 380 nM. Moreover, at HIV protease, the inhibition at 10 µM is 98%.
In the same order, the values of `C[C@H](NC(=O)OCc1ccccc1)C(=O)N[C@@H](Cc1ccccc1)[C@H](O)CNC[C@@H](O)[C@H](Cc1ccccc1)NC(=O)OC(C)(C)C` (relative stereo) [Compound 243, [1R*,2S*(2S*,3R*)]-N-[3-[[3-[[(1,1-Dimethylethoxy)carbonyl]amino]-2-hydroxy-4-phenylbutyl]-2-hydroxy-1-(phenylmethyl)propyl]-N^2-[(phenylmethoxy)carbonyl]-L-alaninamide] are 80 nM and 99%.
In the same order, the values of `CC(C)[C@H](NC(=O)N(C)Cc1nc2ccccc2[nH]1)C(=O)N[C@@H](Cc1ccccc1)[C@H](O)CNC[C@@H](O)[C@H](Cc1ccccc1)NC(=O)OC(C)(C)C` (relative stereo) [Compound 245, [1R*,2S*(2S*,3R*)]-N-[3-[[3-[[(1,1-Dimethylethoxy)carbonyl]amino]-2-hydroxy-4-phenylbutyl]amino]-2-hydroxy-1-(phenylmethyl)propyl]-N^2-[[(1H-benzimidazol-2-yl-methyl)methylamino]carbonyl]-L-valinamide] are 1800 nM and 100%.
Regarding `COC(=O)N[C@H](C(=O)N[C@@H](Cc1ccccc1)[C@H](O)CNC[C@@H](O)[C@H](Cc1ccccc1)NC(=O)OC(C)(C)C)C(C)(C)C` (relative stereo) [Compound 246, [1R*,2S*(2S*,3R*)]-N-[3-[[3-[[(1,1-Dimethylethoxy)carbonyl]amino]-2-hydroxy-4-phenylbutyl]amino]-2-hydroxy-1-(phenylmethyl)propyl]-N^2-(2-methoxycarbonyl)-3-methyl-L-valinamide], the IC50 in assay [1] was 40 nM. Also, the inhibition at 10 µM at HIV protease turned out to be 100%.
The like results for `COC(=O)N[C@H](C(=O)N[C@@H](Cc1ccccc1)[C@H](O)CNC[C@@H](O)[C@H](Cc1ccccc1)NC(=O)OC(C)(C)C)C(C)C` (relative stereo) [Compound 247, [1R*,2S*,3R*)]-N-[3-[[3-[[(1,1-Dimethylethoxy)carbonyl]amino]-2-hydroxy-4-phenylbutyl]amino]-2-hydroxy-1-(phenylmethyl)propyl]-N^2-(methoxycarbonyl)-L-valinamide] were, in that order, 100 nM and 99%.
In the same order, the values of `CCC(=O)N[C@H](C(=O)N[C@@H](Cc1ccccc1)[C@H](O)CNC[C@@H](O)[C@H](Cc1ccccc1)NC(=O)OC(C)(C)C)C(C)C` (relative stereo) [Compound 248, [1R*,2S*,(2S*,3R*)]-N-[3-[[3-[[(1,1-Dimethylethoxy)carbonyl]amino]-2-hydroxy-4-phenylbutyl]amino]-2-hydroxy-1-(phenylmethyl)propyl]-N^2-(1-oxopropyl)-L-valinamide] are 230 nM and 99%.
The like results for `CC(C)[C@H](NC(=O)OCc1ncc[nH]1)C(=O)N[C@@H](Cc1ccccc1)[C@H](O)CNC[C@@H](O)[C@H](Cc1ccccc1)NC(=O)OC(C)(C)C` (relative stereo) [Compound 249, [1R*,2S*(2S*,3R*)]-N-[3-[[3-[[(1,1-Dimethylethoxy)carbonyl]amino]-2-hydroxy-4-phenylbutyl]amino]-2-hydroxy-1-(phenylmethyl)propyl]-N^2-[(1H-imidazol-2-ylmethoxy)carbonyl]-L-valinamide, acetate (2:3) salt] were, in that order, 840 nM and 100%.
Consider `CC(C)[C@H](NC(=O)CCn1[nH]c2ccccc2c1=O)C(=O)N[C@@H](Cc1ccccc1)[C@H](O)CNC[C@@H](O)[C@H](Cc1ccccc1)NC(=O)OC(C)(C)C` (relative stereo) [Compound 250, [1R*,2S*(2S*,3R*)]-N^2-[3-(1,3-Dihydro-3-oxo-2H-indazol-2-yl)-1-oxopropyl]-N-[3-[[3-[[(1,1-dimethylethoxy)carbonyl]amino]-2-hydroxy-4-phenylbutyl]amino]-2-hydroxy-1-(phenylmethyl)propyl]-L-valinamide], for which, in assay [1], the IC50 is 1500 nM. The inhibition at 10 µM on HIV protease worked out at 100%.
In the same order, the values of `CC(C)[C@H](NC(=O)CC(O)CO)C(=O)N[C@@H](Cc1ccccc1)[C@H](O)CNC[C@@H](O)[C@H](Cc1ccccc1)NC(=O)OC(C)(C)C` (relative stereo) [Compound 254, [1R*,2S*(2S*,3R*)]-N-[3-[[3-[[(1,1-Dimethylethoxy)carbonyl]amino]-2-hydroxy-4-phenylbutyl]amino]-2-hydroxy-1-(phenylmethyl)propyl]-N^2-(3,4-dihydroxy-1-oxobutyl)-L-valinamide] are 17000 nM and 98%.
